Molecules are shown by their SMILES. pIC50: −log10 of the molar value. Bounds are passed on as bounds.

The target of the assay is SARM1 (ARM-SAM-TIR) (Homo sapiens (Human), UniProt Q6SZW1). In words: ARM-SAM-TIR SARM1 IC50 assay (NADase activity, NAD+ cleavage, RapidFire MS). The format is biochemical. The note with it: ARM-SAM-TIR lysate 5 μg/mL, 2 h pre-incubation, 5 μM NAD+, 2 hr room temperature. In a few lines: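 Lysate of NRK1-HEK293T cells transfected with full-length ARM-SAM-TIR SARM1 (5 μg/mL final) pre-incubated with compound (1% DMSO) 2 h at room temperature in Dulbecco's PBS. Reaction started with 5 μM NAD+, run 2 hr at room temperature, then stopped with TCA/acetonitrile. NAD+ and ADPR quantified by RapidFire MS.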
Chain of SARM1 (ARM-SAM-TIR) (Q6SZW1 other isoform, or with tags, fused parts or gaps): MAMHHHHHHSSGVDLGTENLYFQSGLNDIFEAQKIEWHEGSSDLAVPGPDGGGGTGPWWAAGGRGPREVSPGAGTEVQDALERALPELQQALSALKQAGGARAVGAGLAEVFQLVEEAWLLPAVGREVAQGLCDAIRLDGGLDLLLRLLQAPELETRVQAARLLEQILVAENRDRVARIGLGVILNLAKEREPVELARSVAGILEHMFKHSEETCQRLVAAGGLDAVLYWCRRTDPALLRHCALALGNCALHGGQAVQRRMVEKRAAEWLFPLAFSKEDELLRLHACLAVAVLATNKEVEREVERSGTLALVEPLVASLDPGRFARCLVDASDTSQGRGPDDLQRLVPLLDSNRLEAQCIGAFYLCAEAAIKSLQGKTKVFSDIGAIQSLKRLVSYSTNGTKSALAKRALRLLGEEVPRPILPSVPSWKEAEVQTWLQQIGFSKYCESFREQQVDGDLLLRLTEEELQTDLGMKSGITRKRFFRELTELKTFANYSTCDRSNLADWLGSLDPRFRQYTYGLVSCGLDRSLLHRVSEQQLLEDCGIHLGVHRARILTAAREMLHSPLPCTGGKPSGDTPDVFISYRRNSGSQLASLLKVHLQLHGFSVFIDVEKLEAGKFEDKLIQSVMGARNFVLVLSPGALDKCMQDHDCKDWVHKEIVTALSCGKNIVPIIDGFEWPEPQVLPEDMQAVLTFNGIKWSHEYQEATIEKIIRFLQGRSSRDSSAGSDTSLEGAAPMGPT
On to `O=C(C[C@H]1CCOc2cc(Cl)ccc21)Nc1cc(-c2ccnnc2)n[nH]1` [Example 206], for which the pIC50 was over 5.30. Compound `O=C(C[C@@H]1CCOc2cc(Cl)ccc21)Nc1cc(-c2ccnnc2)n[nH]1` [Example 207] had a pIC50 of over 5.30. The result for `O=C(C[C@H]1CCOc2cc(Cl)ccc21)Nc1nnc(-c2ccncc2)[nH]1` [Example 208] reads over 5.30; that for `O=C(C[C@@H]1CCOc2cc(Cl)ccc21)Nc1nnc(-c2ccncc2)[nH]1` [Example 209], over 5.30. In turn, `O=C(Nc1cc(-c2ccnnc2)n[nH]1)[C@H]1C[C@H](c2ccc(Cl)nc2)C1` [Example 210] gave a pIC50 of over 5.30. `N#Cc1c(-c2ccncc2)c[nH]c1NC(=O)CCc1ccc(Cl)nc1` [Example 211] had a pIC50 of over 5.30.

In the case of `O=C(C[C@H]1CCOc2cc(Cl)ccc21)Nc1cc(-c2ccncc2)n[nH]1` [Example 212], the pIC50 was over 5.30. The result for `O=C(C[C@@H]1CCOc2cc(Cl)ccc21)Nc1cc(-c2ccncc2)n[nH]1` [Example 213] reads over 5.30; that for `Cc1c(-c2ccncc2)n[nH]c1NC(=O)C[C@H]1CCOc2cc(Cl)ccc21` [Example 214], over 5.30. The same measure for `Cc1c(-c2ccncc2)n[nH]c1NC(=O)C[C@@H]1CCOc2cc(Cl)ccc21` [Example 215]: over 5.30. The result for `Cc1c(-c2ccncc2)n[nH]c1NC(=O)N1CC(c2ccccc2)C1` [Example 216] reads over 5.30; that for `Cc1cnccc1-c1nnc(NC(=O)CCc2ccc(Cl)cc2)[nH]1` [Example 217], over 5.30; that for `Cc1c(-c2ccncc2)n[nH]c1NC(=O)N1CC(c2ccc(Cl)cc2)C1` [Example 218], over 5.30.

Compound `CCc1c(-c2ccncc2)n[nH]c1NC(=O)CCc1ccc(Cl)nc1` [Example 219] gave a pIC50 of over 5.30. The same measure for `Cc1c(-c2ccncc2)n[nH]c1NC(=O)C1CN(c2ccc(Cl)cc2)C1` [Example 220]: 4.82 to 5.30; for `Cc1c(-c2ccncc2)n[nH]c1NC(=O)CCc1ccc(F)cc1` [Example 221]: over 5.30; for `Cc1c(-c2ccncc2)n[nH]c1NC(=O)CCc1cc(F)cc(F)c1` [Example 222]: over 5.30. For the compound `Cc1c(-c2ccncc2)n[nH]c1NC(=O)C(O)Cc1ccc(Cl)cc1` (centres unmarked) [Example 223], the pIC50 was over 5.30.

`Cc1c(-c2ccncc2)n[nH]c1NC(=O)CN(C)c1ccc(Cl)cc1` [Example 224] had a pIC50 of 4.82 to 5.30. The result for `N#Cc1cnccc1-c1nnc(NC(=O)CCc2ccc(Cl)cc2)[nH]1` [Example 225] reads over 5.30; that for `O=C(Nc1nnc(-c2ccncc2)[nH]1)NC1CCOc2cc(Cl)ncc21` (centres unmarked) [Example 226], over 5.30.

Compound `O=C(CCc1ccc(Cl)cc1)Nc1[nH]nc(-c2ccncc2)c1C1CC1` [Example 227] gave a pIC50 of over 5.30. On to `O=C(CCc1ccc(Cl)nc1)Nc1[nH]nc(-c2ccncc2)c1C1CC1` [Example 228], for which the pIC50 was over 5.30. The result for `CCOC(=O)Cc1c(-c2ccncc2)n[nH]c1NC(=O)CCc1ccc(Cl)cc1` [Example 229] reads over 5.30; that for `[2H]C([2H])(C(=O)Nc1nnc(-c2ccnnc2)[nH]1)C([2H])([2H])c1ccc(Cl)cc1` [Example 230], over 5.30. The same measure for `Cc1c(-c2ccnnc2)n[nH]c1NC(=O)CC1CCOc2cc(Cl)ccc21` (centres unmarked) [Example 231]: over 5.30. As for `O=C(C[C@H]1CCOc2nc(Cl)ccc21)Nc1nnc(-c2ccncc2)[nH]1` [Example 232], the pIC50 was over 5.30.

As for `O=C(C[C@@H]1CCOc2nc(Cl)ccc21)Nc1nnc(-c2ccncc2)[nH]1` [Example 233], the pIC50 was over 5.30. The same measure for `O=C(C[C@H]1CCOc2cc(Cl)ncc21)Nc1nnc(-c2ccncc2)[nH]1` [Example 234]: over 5.30.

In turn, `O=C(C[C@H]1CCOc2cc(Cl)ncc21)Nc1nnc(-c2ccncc2)[nH]1` [Example 235] gave a pIC50 of 4.82 to 5.30. For `O=C(Nc1cc(-c2ccncc2)n[nH]1)[C@H]1C[C@H](c2ccc(Cl)nc2)C1` [Example 236], the pIC50 is over 5.30. The same measure for `Cc1c(-c2ccncc2)n[nH]c1NC(=O)[C@H]1C[C@H](c2ccc(Cl)nc2)C1` [Example 237]: over 5.30; for `N#Cc1cnccc1-c1cc(NC(=O)CCc2ccc(Cl)cc2)[nH]n1` [Example 238]: over 5.30; for `CN(C(=O)CCc1ccc(Cl)nc1)c1cc(-c2ccncc2)n[nH]1` [Example 239]: over 5.30. The same measure for `Cc1nn(C)c(C)c1OCC(=O)Nc1[nH]nc(-c2ccncc2)c1C` [Example 240]: 4.82 to 5.30; for `Cc1c(-c2ccncc2)n[nH]c1NC(=O)Cn1cc(C)c2ccccc21` [Example 241]: 4.82 to 5.30. For the compound `Cc1c(-c2ccncc2)n[nH]c1NC(=O)c1ccc(-n2ccnn2)cc1` [Example 242], the pIC50 is 4.82 to 5.30. As for `Cc1c(-c2ccncc2)n[nH]c1NC(=O)CCNC(=O)C1CC1C` (centres unmarked) [Example 243], the pIC50 was 4.82 to 5.30. The same measure for `CCC(C)c1cc(C(=O)Nc2[nH]nc(-c3ccncc3)c2C)on1` (centres unmarked) [Example 244]: 4.82 to 5.30; for `Cc1c(-c2ccncc2)n[nH]c1NC(=O)CCc1nc2ccccc2s1` [Example 245]: 4.82 to 5.30. Turning to `Cc1c(-c2ccncc2)n[nH]c1NC(=O)CC(C)c1ccc(F)cc1` (centres unmarked) [Example 246], the negative logarithm of the IC50 (pIC50) was over 5.30. The result for `Cc1c(-c2ccncc2)n[nH]c1NC(=O)/C=C/c1c(F)cccc1F` [Example 247] reads 4.82 to 5.30; that for `Cc1c(-c2ccncc2)n[nH]c1NC(=O)CCc1cccc(Cl)c1` [Example 248], over 5.30; that for `Cc1c(-c2ccncc2)n[nH]c1NC(=O)CCc1cc(F)ccc1F` [Example 249], over 5.30. Take `Cc1[nH]c(NC(=O)CCc2ccc(Cl)nc2)nc1-c1ccncc1` [Example 250]: the pIC50 was over 5.30. The same measure for `Cc1c(-c2ccncc2)n[nH]c1NC(=O)CCc1nc(C2CC2)no1` [Example 251]: 4.82 to 5.30; for `Cc1c(-c2ccncc2)n[nH]c1NC(=O)c1ccc(OCC2CC2)cc1` [Example 252]: 4.82 to 5.30. The result for `Cc1c(-c2ccncc2)n[nH]c1NC(=O)COc1ccc(C#N)cc1` [Example 253] reads 4.82 to 5.30; that for `Cc1cccc(CS(=O)(=O)Nc2[nH]nc(-c3ccncc3)c2C)c1` [Example 254], 4.82 to 5.30. Take `Cc1c(-c2ccncc2)n[nH]c1NC(=O)c1ccc(OC2CCC2)cc1` [Example 255]: the pIC50 is 4.82 to 5.30. The result for `CCc1c(-c2ccncc2)n[nH]c1NC(=O)CN1CCCc2sccc2C1=O` [Example 256] reads 4.82 to 5.30; that for `Cc1ccc(OCC(=O)Nc2[nH]nc(-c3ccncc3)c2C)cc1` [Example 257], 4.82 to 5.30; that for `Cc1c(-c2ccncc2)n[nH]c1NC(=O)CNC(=O)CC(C)(C)C` [Example 259], 4.82 to 5.30. `Cc1c(-c2ccncc2)n[nH]c1NC(=O)CCc1ccc(C(F)(F)F)nc1` [Example 261]: the pIC50 was over 5.30. On to `Cc1c(-c2ccncc2)n[nH]c1NC(=O)CCc1ccc(C#N)cc1` [Example 262], for which the pIC50 was over 5.30.

For the compound `CNC(=O)Cc1c(-c2ccncc2)n[nH]c1NC(=O)CCc1ccc(Cl)cc1` [Example 263], the pIC50 was over 5.30. The same measure for `O=C(CCc1ccc(Cl)cc1)Nc1[nH]nc(-c2ccnnc2)c1C1CCC1` [Example 264]: over 5.30. The result for `O=C(CCc1ccc(Cl)nc1)Nc1[nH]nc(-c2ccnnc2)c1C1CCC1` [Example 265] reads over 5.30. With `O=C(CCc1ccc(Cl)nc1)Nc1[nH]nc(-c2ccncc2)c1F` [Example 266], the pIC50 was over 5.30. The same measure for `O=C(CCc1ccc(Cl)nc1)Nc1cc(-c2cccnc2)n[nH]1` [Example 267]: 4.82 to 5.30; for `Cc1c(-c2ccncc2)n[nH]c1NC(=O)CCc1ccc(F)c(F)c1` [Example 268]: over 5.30; for `Cc1c(-c2ccncc2)n[nH]c1NC(=O)COc1ccc(Cl)cc1` [Example 269]: over 5.30. With `Cc1c(-c2ccncc2)n[nH]c1NC(=O)CCc1ccc(Cl)c(C#N)c1` [Example 270], the pIC50 is over 5.30. For the compound `O=C(CCc1ccc(Cl)nc1)Nc1[nH]nc(-c2ccncc2)c1Cl` [Example 271], the pIC50 is over 5.30. As to `O=C(CCc1ccc(Cl)nc1)Nc1[nH]nc(-c2ccnnc2)c1C1CC1` [Example 272], the pIC50 was over 5.30. The compound `O=C(CCc1ccc(Cl)cc1)Nc1[nH]nc(-c2ccnnc2)c1C1CC1` [Example 273] gave a pIC50 of over 5.30. In the case of `Cc1c(-c2ccncc2)n[nH]c1NC(=O)CCc1ccc(C#N)c(F)c1` [Example 274], the pIC50 was over 5.30. The same measure for `O=C(Nc1cc(-c2ccncc2)n[nH]1)C(O)Cc1ccc(Cl)cc1` (centres unmarked) [Example 275]: over 5.30; for `O=C(Nc1nnc(-c2ccncc2)[nH]1)N[C@@H]1CCOc2cc(Cl)ncc21` [Example 276]: 4.82 to 5.30. `O=C(Nc1nnc(-c2ccncc2)[nH]1)N[C@H]1CCOc2cc(Cl)ncc21` [Example 277] gave a pIC50 of over 5.30. `Cc1c(-c2ccnnc2)n[nH]c1NC(=O)C[C@H]1CCOc2cc(Cl)ccc21` [Example 278] showed a pIC50 of over 5.30. Turning to `Cc1c(-c2ccnnc2)n[nH]c1NC(=O)C[C@@H]1CCOc2cc(Cl)ccc21` [Example 279], the pIC50 was over 5.30. For `O=C(Nc1nnc(-c2ccncc2)[nH]1)[C@H]1C[C@H](c2ccc(Cl)nc2)C1` [Example 280], the pIC50 is over 5.30.

In turn, `N#Cc1c(-c2ccncc2F)n[nH]c1NC(=O)CCc1ccc(Cl)nc1` [Example 281] gave a pIC50 of over 5.30. The result for `[2H]C([2H])([2H])c1c(-c2ccncc2)n[nH]c1NC(=O)CCc1ccc(Cl)nc1` [Example 282] reads over 5.30.

In turn, `O=C(CC1CNc2cc(Cl)ccc21)Nc1nnc(-c2ccncc2)[nH]1` (centres unmarked) [Example 283] gave a pIC50 of over 5.30.

For `COCc1c(-c2ccncc2)n[nH]c1NC(=O)CCc1ccc(Cl)cc1` [Example 284], the pIC50 is over 5.30.

As usually defined, the pIC50 is the IC50 on a negative log10 scale, so that one unit is a factor of ten.

For the origin of these results see patent US12331033B2, “Inhibitors of SARM1” (Disarm Therapeutics, Inc., priority 2020, dated 2025).
